Experimental data as given in ChEMBL document CHEMBL1201862, “PubChem BioAssay data set” (2004).
Activity calls are given as the source filed them.

Assays:
Vero = experiment: cells; format: functional; details: Chlorocebus sabaeus
[1] = biological target: Glucose-6-phosphate 1-dehydrogenase (Homo sapiens, UniProt P11413); experiment: inhibition of Homo sapiens G6PD, dose series – biochemical, fluorescence, selectivity assay for P. falciparum G6PD inhibitor project, dose response (AID 504792); format: functional
Chain of Glucose-6-phosphate 1-dehydrogenase (P11413 whole entry): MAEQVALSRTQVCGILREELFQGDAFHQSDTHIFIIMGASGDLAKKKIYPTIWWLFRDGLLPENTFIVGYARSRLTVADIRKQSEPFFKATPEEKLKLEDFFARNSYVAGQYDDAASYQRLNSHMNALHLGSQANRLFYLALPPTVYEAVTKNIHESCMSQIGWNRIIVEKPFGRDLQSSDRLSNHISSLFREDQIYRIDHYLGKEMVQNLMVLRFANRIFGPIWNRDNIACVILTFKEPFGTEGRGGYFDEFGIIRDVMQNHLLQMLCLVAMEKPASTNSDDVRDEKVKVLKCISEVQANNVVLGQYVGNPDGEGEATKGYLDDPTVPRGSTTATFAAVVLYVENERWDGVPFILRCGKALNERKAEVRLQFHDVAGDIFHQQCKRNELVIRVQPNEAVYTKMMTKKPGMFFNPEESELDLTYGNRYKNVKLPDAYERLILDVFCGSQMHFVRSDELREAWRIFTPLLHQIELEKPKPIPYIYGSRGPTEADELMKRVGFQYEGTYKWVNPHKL

[2] = HEK-293T viability loss after treatment – luminescence, T-cell screen hits, cytotoxicity control for TCR NF-kB inhibitor project, dose response (AID 489026); format: functional, cell-based;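 note: cells exposed to compound about 14 hours before the viability readout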
[3] = biological target: T1, Microphthalmia-associated transcription factor (Homo sapiens, UniProt O75030); experiment: reducers of TRPM1 reporter luminescence, concentration series – cell-based, SK-MEL-5, cherry-picked, set 3, MITF inhibitor project, dose response (AID 493073); format: functional;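 note: SK-MEL-5 melanoma cells with luciferase driven by the MITF target TRPM1 promoter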
T1 sequence (O75030 whole entry): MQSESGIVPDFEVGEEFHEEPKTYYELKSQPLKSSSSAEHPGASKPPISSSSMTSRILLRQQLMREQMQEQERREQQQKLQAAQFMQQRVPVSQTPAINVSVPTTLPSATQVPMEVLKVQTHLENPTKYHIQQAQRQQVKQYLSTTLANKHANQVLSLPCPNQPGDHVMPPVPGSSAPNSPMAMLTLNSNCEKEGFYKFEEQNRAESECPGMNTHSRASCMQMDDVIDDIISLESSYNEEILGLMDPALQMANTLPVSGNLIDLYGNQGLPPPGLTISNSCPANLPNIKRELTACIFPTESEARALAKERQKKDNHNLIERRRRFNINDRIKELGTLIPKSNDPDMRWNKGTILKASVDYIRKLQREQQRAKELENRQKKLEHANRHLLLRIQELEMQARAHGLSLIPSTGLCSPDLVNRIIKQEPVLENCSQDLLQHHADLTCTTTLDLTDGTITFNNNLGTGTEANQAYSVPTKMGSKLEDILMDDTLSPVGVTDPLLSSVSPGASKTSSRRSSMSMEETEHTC

[4] = biological target: T2, Heat shock factor protein 1 (Mus musculus, UniProt P38532); experiment: decrease of HSF1-responsive luciferase luminescence – cell-based, NIH3T3, dose retest, confirmation (AID 2382); format: functional;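 note: NIH3T3 fibroblasts with HSF1-driven luciferase reporter stressed by proteasome inhibitor MG132; luminescence from HSF1-driven luciferase expression after 8 hours of MG132 stress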
T2 sequence (P38532 whole entry): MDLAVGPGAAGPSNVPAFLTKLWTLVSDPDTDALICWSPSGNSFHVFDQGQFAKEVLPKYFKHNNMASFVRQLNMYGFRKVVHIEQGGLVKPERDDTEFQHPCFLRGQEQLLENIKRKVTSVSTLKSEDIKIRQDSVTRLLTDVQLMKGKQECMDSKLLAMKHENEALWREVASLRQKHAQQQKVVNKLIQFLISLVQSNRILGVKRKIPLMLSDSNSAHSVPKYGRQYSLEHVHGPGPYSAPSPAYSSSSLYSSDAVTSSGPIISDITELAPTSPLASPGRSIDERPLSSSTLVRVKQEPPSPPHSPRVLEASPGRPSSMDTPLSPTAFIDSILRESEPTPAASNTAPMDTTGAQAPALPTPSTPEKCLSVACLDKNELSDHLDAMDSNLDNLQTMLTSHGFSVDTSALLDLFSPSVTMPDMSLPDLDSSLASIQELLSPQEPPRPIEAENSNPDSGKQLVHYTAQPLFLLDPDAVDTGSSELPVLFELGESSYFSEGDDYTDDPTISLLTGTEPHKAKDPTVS

[5] = biological target: T3, High affinity choline transporter 1 (Homo sapiens, UniProt Q9GZV3); experiment: human choline transporter blockers, potency – cell-based, 5-point CRC, membrane potential dye, dose response (AID 504840); format: functional
T3 sequence (Q9GZV3 whole entry): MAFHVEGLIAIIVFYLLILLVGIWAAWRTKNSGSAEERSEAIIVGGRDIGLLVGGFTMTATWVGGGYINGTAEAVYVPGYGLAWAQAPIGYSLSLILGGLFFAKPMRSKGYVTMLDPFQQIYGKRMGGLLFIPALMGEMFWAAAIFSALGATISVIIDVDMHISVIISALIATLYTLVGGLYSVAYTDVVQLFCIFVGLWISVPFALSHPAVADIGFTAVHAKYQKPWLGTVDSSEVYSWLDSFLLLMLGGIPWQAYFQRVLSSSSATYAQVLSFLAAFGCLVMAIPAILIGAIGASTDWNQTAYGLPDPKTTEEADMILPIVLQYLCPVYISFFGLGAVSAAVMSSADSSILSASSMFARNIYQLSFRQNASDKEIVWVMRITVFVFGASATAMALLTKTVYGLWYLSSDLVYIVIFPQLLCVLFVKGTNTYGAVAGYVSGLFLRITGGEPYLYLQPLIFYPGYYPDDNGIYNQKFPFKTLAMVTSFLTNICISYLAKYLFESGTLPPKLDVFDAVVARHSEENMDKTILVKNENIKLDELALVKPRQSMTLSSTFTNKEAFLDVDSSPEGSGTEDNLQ

[6] = biological target: T4, Rac GTPase-activating protein 1 (Homo sapiens, UniProt Q9H0H5); experiment: blockers of MgcRacGAP-driven Rac1 GTP hydrolysis – biochemical, ADP Hunter fluorescence, primary and confirmatory, confirmation (AID 624330); format: functional
T4 sequence (Q9H0H5 whole entry): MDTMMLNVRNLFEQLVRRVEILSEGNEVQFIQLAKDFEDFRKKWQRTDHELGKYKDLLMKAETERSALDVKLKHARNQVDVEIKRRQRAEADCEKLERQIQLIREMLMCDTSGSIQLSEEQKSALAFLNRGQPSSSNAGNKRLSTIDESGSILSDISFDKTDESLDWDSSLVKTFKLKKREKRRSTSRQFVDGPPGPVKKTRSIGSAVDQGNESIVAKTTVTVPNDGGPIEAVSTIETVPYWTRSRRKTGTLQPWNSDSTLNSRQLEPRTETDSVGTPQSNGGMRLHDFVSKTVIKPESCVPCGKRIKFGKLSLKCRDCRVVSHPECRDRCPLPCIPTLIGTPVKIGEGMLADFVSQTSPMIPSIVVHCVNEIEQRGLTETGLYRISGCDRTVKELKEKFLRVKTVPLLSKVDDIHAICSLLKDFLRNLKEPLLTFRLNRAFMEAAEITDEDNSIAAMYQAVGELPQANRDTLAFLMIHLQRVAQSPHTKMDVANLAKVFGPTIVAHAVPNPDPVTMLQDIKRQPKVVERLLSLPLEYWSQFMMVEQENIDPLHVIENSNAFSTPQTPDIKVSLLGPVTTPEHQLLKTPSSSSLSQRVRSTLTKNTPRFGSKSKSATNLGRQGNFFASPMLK

[7] = biological target: Induced myeloid leukemia cell differentiation protein Mcl-1 (Homo sapiens, UniProt Q07820); format: functional
Chain of Induced myeloid leukemia cell differentiation protein Mcl-1 (Q07820 whole entry): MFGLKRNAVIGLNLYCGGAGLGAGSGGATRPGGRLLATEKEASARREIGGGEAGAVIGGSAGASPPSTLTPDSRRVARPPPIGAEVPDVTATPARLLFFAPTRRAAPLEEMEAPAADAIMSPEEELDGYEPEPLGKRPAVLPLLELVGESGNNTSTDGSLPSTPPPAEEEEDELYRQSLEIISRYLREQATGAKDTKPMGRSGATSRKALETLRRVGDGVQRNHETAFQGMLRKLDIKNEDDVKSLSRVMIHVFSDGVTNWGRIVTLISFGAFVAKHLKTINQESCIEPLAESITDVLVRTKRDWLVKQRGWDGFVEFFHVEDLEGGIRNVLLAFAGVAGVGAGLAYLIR

Nonstructural protein 1 = Nonstructural protein 1 (Influenza A virus, UniProt Q194T2); format: functional, Influenza A virus (A/California/07/2009(H1N1))
Chain of Nonstructural protein 1 (Q194T2 whole entry): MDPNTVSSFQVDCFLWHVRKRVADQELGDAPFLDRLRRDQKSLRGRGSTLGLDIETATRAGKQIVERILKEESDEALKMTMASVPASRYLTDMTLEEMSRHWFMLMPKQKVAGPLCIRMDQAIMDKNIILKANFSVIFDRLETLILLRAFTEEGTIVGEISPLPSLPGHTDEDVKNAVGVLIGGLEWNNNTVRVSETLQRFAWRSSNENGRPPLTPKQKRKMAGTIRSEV

BJ [8] = experiment: BJ-TERT-LT-ST fibroblast viability loss – cell-based, RAS-independent, luminescence, dose response (AID 1935); format: functional; details: Homo sapiens;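 note: BJ fibroblasts immortalized with TERT plus LT and ST oncogenes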
[9] = DRD fibroblast viability loss – cell-based, non-viral oncogenic, luminescence, dose response (AID 1934); format: functional; details: Homo sapiens
[10] = Luminescence Cell-Based Dose Response HTS to Identify Inhibitors of 5'UTR Stem-Loop Driven Prion Protein mRNA Translation in H4 Neuroglioblastoma Cells. [Related pubchem assays: 1827 (Project Summary), 1813 (Primary HTS)]; format: functional
BJ [11] = experiment: BJ-TERT fibroblast viability loss – cell-based, RAS-independent, luminescence, dose response (AID 1933); format: functional; details: Homo sapiens
[12] = luciferase reporter signal suppression in cells – H4 neuroglioma cells, luminescence, dose response (AID 1990); format: functional, cell-based
BJ [13] = experiment: cells; format: functional, cell-based; details: Homo sapiens

Q: Which CC50 (Vero) does the source give for COc1cc(C(=O)N/N=C/c2cccc(Oc3ccccc3)c2)ccc1O here?
A: > 25 µM (active)

Q: Which IC50 [1] does the source give for COCc1cc(O)n2nc(C(C)(C)C)cc2n1 here?
A: > 80 µM (inactive)

Q: With CC(C)c1ccc(/C=N/Nc2ccc(C(=O)O)cc2)cc1 as the compound, how does the IC50 [2] read?
A: > 80 µM (inactive)

Q: And the AC50 [3]?
A: 3.53 µM (active)

Q: And the EC50 [4]?
A: < 0.16 µM (active)

Q: For CC/C(=C(/CC)c1ccc(O)cc1)c1ccc(O)cc1 [DIETHYLSTILBESTROL], which IC50 [5] is on record?
A: 12.6 µM (active)

Q: For CCn1c(SCc2nc(-c3ccc(Cl)cc3)no2)nnc1-c1ccco1, which IC50 [5] is on record?
A: 15.2 µM (active)

Q: With COc1cc(N)c2ncccc2c1OC as the compound, how does the IC50 [1] read?
A: > 80 µM (inactive)

Q: What about the IC50 [6] of the same compound?
A: 56.3 µM (active)

Q: Which results are given for Cc1ccc(N2C(=O)/C(=C\NNc3ccc(S(=O)(=O)N4CCOCC4)cc3[N+](=O)[O-])c3ccccc3C2=O)c(C)c1?
A: IC50 [7]: 1.8 µM (not active); IC50 (Nonstructural protein 1): 8.94 µM (active); IC50 [5]: 12.3 µM (active)

Q: Which IC50 [2] does the source give for O=C(CNC(=O)c1ccco1)N=Nc1c(O)n(CCc2ccccc2)c2ccccc12 here?
A: > 80 µM (inactive)

Q: What about the EC50 (BJ [8]) of the same compound?
A: 1.45 µM (active)

Q: What about the EC50 [9] of the same compound?
A: 2.05 µM (active)

Q: What about the EC50 [10] of the same compound?
A: > 120 µM (not active)

Q: And the EC50 (BJ [11])?
A: 3.21 µM (active)

Q: And the CC50 (Vero)?
A: 2.46 µM (active)

Q: What about the EC50 [12] of the same compound?
A: 12.2 µM (active)

Q: What about the EC50 (BJ [13]) of the same compound?
A: 17.7 µM (active)
